Reference: patent publication US9695154B2, “Heteroaryl inhibitors of sumo activating enzyme” (MILLENNIUM PHARMACEUTICALS, INC., priority 2013, dated 2017)

Biological target: T1, recombinant human SAE enzyme (Homo sapiens, UniProt Q9UBT2)
T1 sequence (Q9UBT2 1-640): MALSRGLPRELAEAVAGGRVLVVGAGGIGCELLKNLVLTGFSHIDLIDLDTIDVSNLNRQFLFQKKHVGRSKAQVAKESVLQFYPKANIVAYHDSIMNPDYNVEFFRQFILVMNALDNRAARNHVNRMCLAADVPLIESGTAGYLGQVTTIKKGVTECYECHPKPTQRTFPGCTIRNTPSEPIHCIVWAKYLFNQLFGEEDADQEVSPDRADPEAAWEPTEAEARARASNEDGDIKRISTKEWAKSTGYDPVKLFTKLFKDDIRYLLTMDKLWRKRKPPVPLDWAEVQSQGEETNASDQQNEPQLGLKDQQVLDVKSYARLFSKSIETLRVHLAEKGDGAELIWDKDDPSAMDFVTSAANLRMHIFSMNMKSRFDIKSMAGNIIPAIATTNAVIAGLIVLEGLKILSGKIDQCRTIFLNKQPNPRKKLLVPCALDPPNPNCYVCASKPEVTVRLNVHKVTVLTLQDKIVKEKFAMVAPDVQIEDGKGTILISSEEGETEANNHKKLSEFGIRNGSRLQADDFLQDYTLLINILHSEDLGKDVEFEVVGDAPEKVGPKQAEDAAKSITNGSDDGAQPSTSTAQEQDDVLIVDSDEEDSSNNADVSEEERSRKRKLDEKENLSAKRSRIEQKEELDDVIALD
T1 sequence (Q9UBE0 1-346 partner): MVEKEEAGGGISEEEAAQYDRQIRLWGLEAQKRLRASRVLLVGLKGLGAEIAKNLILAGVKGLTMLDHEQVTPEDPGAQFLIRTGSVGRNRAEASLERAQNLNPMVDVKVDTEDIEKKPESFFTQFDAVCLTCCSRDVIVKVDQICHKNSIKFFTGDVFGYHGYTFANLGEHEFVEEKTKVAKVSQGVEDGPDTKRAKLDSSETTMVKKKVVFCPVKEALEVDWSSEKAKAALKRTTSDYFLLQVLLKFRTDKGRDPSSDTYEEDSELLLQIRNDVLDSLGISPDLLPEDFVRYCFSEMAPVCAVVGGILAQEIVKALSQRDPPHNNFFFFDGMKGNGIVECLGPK
Assay: SAE HTRF Enzyme Assay
Assay type: biochemical
Details: for IC50: class symbols A-C; for inhibition at 0.111 µM: compound concentration 0.111 μM, read-out: Percent Inhibition
Outline: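 Sumoylation of Ubc9-GST by recombinant human SAE was followed by time-resolved FRET between Eu-cryptate anti-Flag and allophycocyanin anti-GST antibodies. The enzyme step used low ATP (0.5 μM) at pH 7.5 and ran 105 min at 24° C.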

| Compound | IC50 [nM] | inhibition at 0.111 µM [%] |
| --- | --- | --- |
| NS(=O)(=O)OC[C@H]1C[C@@H](Nc2ncncc2C(=O)c2ccn(Cc3cc(C(F)(F)F)ccc3C(F)(F)F)n2)C[C@@H]1O [Compound I-261, [(1R,2S,4R)-4-{(5-({1-[2,5-bis(trifluoromethyl)benzyl]-1H-pyrazol-3-yl}carbonyl)pyrimidin-4-yl]amino}-2-hydroxycyclopentyl]methyl sulfamate] | < 10 | 97 |
| NS(=O)(=O)OC[C@H]1C[C@@H](Nc2ccncc2C(=O)c2ccn(Cc3cccc(C(F)(F)F)c3)n2)C[C@@H]1O [Compound I-262, [(1R,2S,4R)-2-hydroxy-4-{[3-({1-[3-(trifluoromethyl)benzyl]-1H-pyrazol-3-yl}carbonyl)pyridin-4-yl]amino}cyclopentyl]methyl sulfamate] | < 10 | 96 |
| NS(=O)(=O)OC[C@H]1C[C@@H](Nc2ccncc2C(=O)c2ccn(Cc3ccc(F)c(C(F)(F)F)c3)n2)C[C@@H]1O [Compound I-263, [(1R,2S,4R)-4-{[3-({1-[4-fluoro-3-(trifluoromethyl)benzyl]-1H-pyrazol-3-yl}carbonyl)pyridin-4-yl]amino}-2-hydroxycyclopentyl]methyl sulfamate] | < 10 | 91 |
| NS(=O)(=O)OC[C@H]1C[C@@H](Nc2ncncc2C(=O)c2ccn(C3(c4cccc(Cl)c4)CC3)c2)C[C@@H]1O [Compound I-264, [(1R,2S,4R)-4-{[5-({1-[1-(3-Chlorophenyl)cyclopropyl]-1H-pyrrol-3-yl}carbonyl)pyrimidin-4-yl]amino}-2-hydroxycyclopentyl]methyl sulfamate] | 10 to 100 | 90 |
| NS(=O)(=O)OC[C@H]1C[C@@H](Nc2ncncc2C(=O)c2ccn(Cc3ccc(OC(F)(F)F)cc3)n2)[C@H](O)[C@@H]1O [Compound I-265, [(1R,2R,3S,4R)-2,3-dihydroxy-4-{[5-({1-[4-(trifluoromethoxy)benzyl]-1H-pyrazol-3-yl}carbonyl)pyrimidin-4-yl]amino}cyclopentyl]methyl sulfamate] | < 10 | 95 |
| NS(=O)(=O)OC[C@H]1C[C@@H](Nc2ncncc2C(=O)c2ccn(Cc3ccc(C(F)(F)F)cc3C(F)(F)F)n2)[C@H](O)[C@@H]1O [Compound I-266, [(1R,2R,3S,4R)-4-{[5-({1-[2,4-bis(trifluoromethyl)benzyl]-1H-pyrazol-3-yl}carbonyl)pyrimidin-4-yl]amino}-2,3-dihydroxycyclopentyl]methyl sulfamate] | 10 to 100 | 87 |
| NS(=O)(=O)OC[C@H]1C[C@@H](Nc2ncncc2C(=O)c2ccn(Cc3cc(C(F)(F)F)ccc3C(F)(F)F)n2)[C@H](O)[C@@H]1O [Compound I-267, [(1R,2R,3S,4R)-4-{[5-({1-[2,5-bis(trifluoromethyl)benzyl]-1H-pyrazol-3-yl}carbonyl)pyrimidin-4-yl]amino}-2,3-dihydroxycyclopentyl]methyl sulfamate] | < 10 | 97 |
| NS(=O)(=O)OC[C@H]1C[C@@H](Nc2ncncc2C(=O)c2ccn(Cc3cc(C(F)(F)F)ccc3Cl)n2)[C@H](O)[C@@H]1O [Compound I-268, [(1R,2R,3S,4R)-4-{[5-({1-[2-chloro-5-(trifluoromethyl)benzyl]-1H-pyrazol-3-yl}carbonyl)pyrimidin-4-yl]amino}-2,3-dihydroxycyclopentyl]methyl sulfamate] | < 10 | 99 |
| NS(=O)(=O)OC[C@H]1C[C@@H](Nc2ncncc2C(=O)c2ccn(Cc3cc(F)cc(F)c3)n2)[C@H](O)[C@@H]1O [Compound I-269, {(1R,2R,3S,4R)-4-[(5-{[1-(3,5-difluorobenzyl)-1H-pyrazol-3-yl]carbonyl}pyrimidin-4-yl)amino]-2,3-dihydroxycyclopentyl}methyl sulfamate] | < 10 | 96 |
| NS(=O)(=O)OC[C@H]1C[C@@H](Nc2ncncc2C(=O)c2ccn(Cc3cccc(C4(O)COC4)c3)n2)C[C@@H]1O [Compound I-270, [(1R,2S,4R)-2-hydroxy-4-{[5-{{1-[3-(3-hydroxyoxetan-3-yl)benzyl]-1H-pyrazol-3-yl}carbonyl)pyrimidin-4-yl]amino}cyclopentyl]methyl sulfamate] | 10 to 100 | 87 |
| NS(=O)(=O)OC[C@H]1C[C@@H](Nc2ncncc2C(=O)c2ccn(Cc3cccc(OC(F)(F)F)c3)c2)C[C@@H]1O [Compound I-271, [(1R,2S,4R)-2-hydroxy-4-{[5-({1-[3-(trifluoromethoxy)benzyl]-1H-pyrrol-3-yl}carbonyl)pyrimidin-4-yl]amino}cyclopentyl]methyl sulfamate] | < 10 | 97 |
| NS(=O)(=O)OC[C@H]1C[C@@H](Nc2ncncc2C(=O)c2cc(Br)n(Cc3cccc(Br)c3)c2)[C@@H](F)[C@@H]1O [Compound I-272, {(1R,2R,3R,4R)-4-[(5-{[5-bromo-1-(3-bromobenzyl)-1H-pyrrol-3-yl]carbonyl}pyrimidin-4-yl)amino]-3-fluoro-2-hydroxycyclopentyl}methyl sulfamate] | < 10 | 99 |
| NS(=O)(=O)OC[C@H]1C[C@@H](Nc2ncncc2C(=O)c2ccn(Cc3ccc(F)c4ccccc34)n2)[C@H](O)[C@@H]1O [Compound I-273, [(1R,2R,3S,4R)-4-{[5-({1-[(4-fluoro-1-naphthyl)methyl]-1H-pyrazol-3-yl}carbonyl)pyrimidin-4-yl]amino}-2,3-dihydroxycyclopentyl]methyl sulfamate] | < 10 | 98 |
| NS(=O)(=O)OC[C@H]1C[C@@H](Nc2ncncc2C(=O)c2ccn(Cc3ccc(C(F)(F)F)o3)c2)C[C@@H]1O [Compound I-274, [(1R,2S,4R)-2-hydroxy-4-({5-[(1-{[5-(trifluoromethyl)-2-furyl]methyl}-1H-pyrrol-3-yl)carbonyl]pyrimidin-4-yl}amino)cyclopentyl]methyl sulfamate] | < 10 | 97 |
| NS(=O)(=O)OC[C@H]1C[C@@H](Nc2ncncc2C(=O)c2ccn(CC#CC3(O)COC3)n2)C[C@@H]1O [Compound I-275, [(1R,2S,4R)-2-hydroxy-4-{[5-({1-[3-(3-hydroxyoxetan-3-yl)prop-2-yn-1-yl]-1H-pyrazol-3-yl}carbonyl)pyrimidin-4-yl]amino}cyclopentyl]methyl sulfamate] | 100 to 1000 | 18 |
| NS(=O)(=O)OC[C@H]1C[C@@H](Nc2ncncc2C(=O)c2ccn(Cc3ccc(OC(F)(F)F)cc3)n2)C[C@@H]1O [Compound I-276, [(1R,2S,4R)-2-hydroxy-4-{[5-({1-[4-(trifluoromethoxy)benzyl]-1H-pyrazol-3-yl}carbonyl)pyrimidin-4-yl]amino}cyclopentyl]methyl sulfamate] | 10 to 100 | 82 |
| Cc1ccc(Cn2ccc(C(=O)c3cncnc3N[C@@H]3C[C@H](COS(N)(=O)=O)[C@@H](O)[C@@H]3F)c2)o1 [Compound I-277, [(1R,2R,3R,4R)-3-fluoro-2-hydroxy-4-{[5-({1-[(5-methyl-2-furyl)methyl]-1H-pyrrol-3-yl}carbonyl)pyrimidin-4-yl]amino}cyclopentyl]methyl sulfamate] | < 10 | 99 |
| NS(=O)(=O)OC[C@H]1C[C@@H](Nc2ncncc2C(=O)c2ccn(Cc3cccc(-c4ccccc4)c3)n2)[C@H](O)[C@@H]1O [Compound I-278, {(1R,2R,3S,4R)-4-[(5-{[1-(biphenyl-3-ylmethyl)-1H-pyrazol-3-yl]carbonyl}pyrimidin-4-yl)amino]-2,3-dihydroxycyclopentyl}methyl sulfamate] | < 10 | 97 |
| NS(=O)(=O)OC[C@H]1C[C@@H](Nc2ncncc2C(=O)c2ccn(Cc3ccc(F)c(Br)c3)c2)C[C@@H]1O [Compound I-279, {(1R,2S,4R)-4-[(5-{[1-(3-bromo-4-fluorobenzyl)-1H-pyrrol-3-yl]carbonyl}pyrimidin-4-yl)amino]-2-hydroxycyclopentyl}methyl sulfamate] | < 10 | 98 |
| NS(=O)(=O)OC[C@H]1C[C@@H](Nc2ncncc2C(=O)c2ccn(Cc3ccc(Cl)s3)n2)C[C@@H]1O [Compound I-280, [(1R,2S,4R)-4-{[5-({1-[(5-chloro-2-thienyl)methyl]-1H-pyrazol-3-yl}carbonyl)pyrimidin-4-yl]amino}-2-hydroxycyclopentyl]methyl sulfamate] | < 10 | 99 |
